The source of these data is patent US12582599B2, “Methods for treatment of bladder cancer with gemcitabine” (TARIS Biomedical LLC, priority 2014, dated 2026).

A short description of data set [1]: Gemcitabine release systems vs intravesical instillation in hounds. It is filed as in vivo, large mixed breed hounds. The conditions noted are these: intravesical instillation mimicking standard clinical doses. The protocol: Two gemcitabine release systems (devices as shown in FIGS. 1A-1B) designed to release therapeutic levels (4 mg/day and 40 mg/day) into the urine were screened. The devices used either laser-drilled orifices or punched orifices for release of the gemcitabine. The systems tested were compared to intravesical instillations which were designed to mimic the standard intravesical doses used clinically. The test animals were large mixed breed hounds, with N=3 for each group.
In vivo, one system yielded very low urine and tissue concentrations but was well tolerated by the test animal. The other system produced target urine concentration levels but was poorly tolerated by the test animal. Urine profiles were also variable and the duration of drug release was unacceptably short.

For data set [2] the following is noted: minipig, in vivo. Here is the method:
Varying concentrations of gemcitabine were perfused into pigs for 7 days, N=5 (2 males and 3 females per treatment group). The perfusion animals were dosed at concentrations selected to bracket the target doses for bladder cancer in humans. For comparison, a gemcitabine releasing device (as shown in FIGS. 1A-1B) with large bore end caps (restraining plugs with a large aperture therethrough for drug release) with an intermediate in vitro release rate was deployed in a separate group of animals.

A short description of data set [3]: 14C gemcitabine bladder perfusion vs IV bolus, blood/urine/tissue content. It is filed as in vivo, male Sprague Dawley rats. The protocol: A study was conducted on male Sprague Dawley rats administering ^14C gemcitabine by intra-urinary bladder cannula, over a 6- or 24-hour continuous perfusion, or by a single IV bolus. The 6- and 24-hour continuous perfusions perfused 6.9 and 26.6 mg, respectively, of gemcitabine into the bladder. The single IV bolus included 5.0 mg of gemcitabine. Blood (FIG. 8), urine, and tissue samples (e.g., bladder, prostate) (FIGS. 7 and 9) were collected and analyzed for gemcitabine content. The results are illustrated in FIGS. 7-9. […] The gemcitabine levels observed for each of the bladder epithelium, lamina propria, muscularis, and adventitia are shown in FIG. 14, which also illustrates a target effective range for the gemcitabine tissue concentration.

As to `Nc1ccn([C@@H]2O[C@H](CO)[C@@H](O)C2(F)F)c(=O)n1` [gemcitabine, 2′,2′-difluorodeoxycytidine], the urothelial lesions result in data set [1] is “significant urothelial lesions”. In data set [2], the tolerability result is given as “tolerated gemcitabine well”. Moreover, in data set [3] (6- or 24-hour continuous bladder perfusion, sustained urine concentrations), the “gemcitabine levels in bladder tissue” value was “at or exceed therapeutic concentrations”. Besides, the “concentration of gemcitabine in the bladder” value in data set [3] (24 hours after a clinically relevant IV dose, compared with perfusion) is on record as “significantly lower concentration”. In addition, the plasma/systemic exposure entry in data set [3] (continuous delivery by intravesical administration) was “without significant plasma/systemic exposure”.
